A word on the IC50: it is the concentration that gives 50% inhibition.

Drawing on US20110178064A1, “SPIRO CONDENSED […] DERIVATIVES FOR USE AS ANTIBACTERIAL” (A[…]&D, priority 2007, published 2011), this text covers IC50 for 18 molecules.

In the experiment the target is Escherichia coli DNA gyrase A/B tetramer (Escherichia coli, UniProt P0AES4+P0AES6). Kind of experiment: DNA gyrase supercoiling activity fluorescence polarisation assay. It counts as biochemical. In outline:
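Gyrase supercoiling reactions quenched with 40 nM 5′-BODIPY-FL oligodeoxynucleotide triplex probe in pH 3.5 NaCl/sodium acetate buffer; fluorescence anisotropy read after 60 min (485/535 nm).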
(In general: Polarisation of emitted light reports the rotation of a fluorescent probe.)

Setting [1] is: E. coli DNA gyrase supercoiling, asterisk: no IC50 obtained at or below the indicated concentration, read-out: IC50.

Like-named read-outs stand apart in the source and are kept apart here.

Escherichia coli DNA gyrase A/B tetramer, sequence (P0AES4 whole entry, one chain of several): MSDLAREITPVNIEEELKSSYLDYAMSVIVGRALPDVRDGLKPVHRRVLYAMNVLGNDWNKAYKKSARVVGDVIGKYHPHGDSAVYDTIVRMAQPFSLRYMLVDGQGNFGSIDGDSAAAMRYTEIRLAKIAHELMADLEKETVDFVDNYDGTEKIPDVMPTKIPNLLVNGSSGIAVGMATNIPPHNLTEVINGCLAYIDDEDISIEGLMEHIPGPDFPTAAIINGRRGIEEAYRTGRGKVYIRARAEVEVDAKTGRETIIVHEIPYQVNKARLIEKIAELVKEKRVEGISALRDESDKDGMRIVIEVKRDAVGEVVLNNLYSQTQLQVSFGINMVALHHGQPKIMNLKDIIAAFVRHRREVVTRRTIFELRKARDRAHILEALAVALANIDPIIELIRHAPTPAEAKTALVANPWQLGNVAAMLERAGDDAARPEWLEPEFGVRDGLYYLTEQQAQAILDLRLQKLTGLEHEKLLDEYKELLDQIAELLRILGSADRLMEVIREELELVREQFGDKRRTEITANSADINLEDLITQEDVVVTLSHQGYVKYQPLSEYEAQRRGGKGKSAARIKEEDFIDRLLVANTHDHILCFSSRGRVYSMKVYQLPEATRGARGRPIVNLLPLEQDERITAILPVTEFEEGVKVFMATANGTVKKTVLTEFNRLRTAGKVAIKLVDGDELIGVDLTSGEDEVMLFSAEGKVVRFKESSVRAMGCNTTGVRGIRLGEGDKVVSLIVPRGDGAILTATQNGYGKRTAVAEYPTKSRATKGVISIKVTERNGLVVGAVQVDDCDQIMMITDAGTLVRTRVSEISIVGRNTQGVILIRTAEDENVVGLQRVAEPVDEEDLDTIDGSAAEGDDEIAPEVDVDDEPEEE

As to `C[C@@H]1CN2c3ncc(C(=N)NO)cc3CC3(C(=O)NC(=O)NC3=O)[C@H]2[C@H](C)O1` (relative stereo) [Example 121, (6aS,7S,9R)-rel-N-Hydroxy-7,9-dimethyl-2′,4′,6′-trioxo-1′,3′,4′,6′,6a,7,9,10-octahydro-2′H,5H-spiro[1,4-oxazino[4,3-a][1,8]naphthyridine-6,5′-pyrimidine]-3-carboximidamide], the IC50 turned out to be 9 µM.

Regarding `Cc1nc(-c2cnc3c(c2)CC2(C(=O)NC(=O)NC2=O)[C@H]2[C@H](C)O[C@H](C)CN32)no1` (relative stereo) [Example 122, (6aS,7S,9R)-rel-7,9-dimethyl-3-(5-methyl-1,2,4-oxadiazol-3-yl)-6a,7,9,10-tetrahydro-2′H,5H-spiro[1,4-oxazino[4,3-a][1,8]naphthyridine-6,5′-pyrimidine]-2′,4′,6′(1′H,3′H)-trione], the half-inhibitory concentration (IC50) came to 10 µM. The same measure, in the same setting: the result for `C[C@@H]1CN2c3ncc(-c4noc(-c5ccccc5)n4)cc3CC3(C(=O)NC(=O)NC3=O)[C@H]2[C@H](C)O1` (relative stereo) [Example 123, (6aS,7S,9R)-rel-7,9-Dimethyl-3-(5-phenyl-1,2,4-oxadiazol-3-yl)-6a,7,9,10-tetrahydro-2′H,5H-spiro[1,4-oxazino[4,3-a][1,8]naphthyridine-6,5′-pyrimidine]-2′,4′,6′(1′H,3′H)-trione] reads 9 µM; that for `CC1CC(C)C2N(C1)c1cnc(Br)cc1CC21C(=O)NC(=O)NC1=O` (stereo not drawn) [Example 2, 3-Bromo-7,9-Dimethyl-5,6a,7,8,9,10-hexahydro-1′H-spiro[pyrido[1,2-a][1,7]naphthyridine-6,5′-pyrimidine]-2′,4′,6′(3′H)-trione], 9 µM. Still for that read-out and setting: the result for `O=C1NC(=O)C2(Cc3ccnc(Cl)c3N3CCCCC32)C(=O)N1` (stereo not drawn) [Example 4, 1-chloro-5,6a,7,8,9,10-Hexahydro-1′H-spiro[pyrido[1,2-a][1,7]naphthyridine-6,5′-pyrimidine]-2′,4′,6′(3′H)-trione] reads above 100 µM; that for `O=C1NC(=O)C2(Cc3c(F)cncc3N3CCCCC32)C(=O)N1` (stereo not drawn) [Example 5, 4-Fluoro-5,6a,7,8,9,10-Hexahydro-1′H-spiro[pyrido[1,2-a][1,7]naphthyridine-6,5′-pyrimidine]-2′,4′,6′(3′H)-trione], above 100 µM; that for `CC1C[C@@H](C)[C@H]2N(C1)c1ncccc1CC21C(=O)NC(=O)NC1=O` (stereo partly drawn) [Example 7, (6aR,7R)-7,9-Dimethyl-5,6a,7,8,9,10-hexahydro-1′H-spiro[pyrido[1,2-a][1,8]naphthyridine-6,5′-pyrimidine]-2′,4′,6′(3′H)-trione], 3 µM. On the same count and under the same terms, the same measure for `CC1C[C@@H](C)[C@H]2N(C1)c1ccc(Br)nc1CC21C(=O)NC(=O)NC1=O` (stereo partly drawn) [Example 8, (6aR,7R)-3-Bromo-7,9-dimethyl-5,6a,7,8,9,10-hexahydro-1′H-spiro[pyrido[1,2-a][1,5]naphthyridine-6,5′-pyrimidine]-2′,4′,6′(3′H)-trione]: above 83 µM; for `O=C1NC(=O)C2(Cc3cc(Br)cnc3N3CCCCC32)C(=O)N1` (stereo not drawn) [Example 10, 3-Bromo-5,6a,7,8,9,10-hexahydro-1′H-spiro[pyrido[1,2-a][1,8]naphthyridine-6,5′-pyrimidine]-2′,4′,6′(3′H)-trione]: above 83 µM; for `CC1C[C@@H](C)[C@H]2N(C1)c1ncc(Br)cc1CC21C(=O)NC(=O)NC1=O` (stereo partly drawn) [Example 11, (6aR,7R)-3-Bromo-7,9-dimethyl-5,6a,7,8,9,10-hexahydro-1′H-spiro[pyrido[1,2-a][1,8]naphthyridine-6,5′-pyrimidine]-2′,4′,6′(3′H)-trione]: 30 µM. `C[C@H]1C[C@@H](C)[C@H]2N(C1)c1c(ccnc1Cl)CC21C(=O)NC(=O)NC1=O` [Example 13, (6aR,7R,9S)-1-chloro-7,9-dimethyl-5,6a,7,8,9,10-hexahydro-1′H-spiro[pyrido[1,2-a][1,7]naphthyridine-6,5′-pyrimidine]-2′,4′,6′(3′H)-trione] displayed an IC50 of 25 µM. Still for that read-out and setting: the result for `Cc1nnc(-c2cc3c(nc2F)N2C[C@@H](C)C[C@@H](C)[C@@H]2C2(C3)C(=O)NC(=O)NC2=O)s1` [Example 17, (6aR,7R,9S)-2-Fluoro-7,9-dimethyl-3-(5-methyl-1,3,4-thiadiazol-2-yl)-5,6a,7,8,9,10-hexahydro-1′H-spiro[pyrido[1,2-a][1,8]naphthyridine-6,5′-pyrimidine]-2′,4′,6′(3′H)-trione] reads 6 µM.

Take `CC1CN2c3ncc(-c4nccs4)cc3CC3(C(=O)NC(=O)NC3=O)C2C(C)O1` [Example 25, (6aS,7S,9R)-rel-7,9-Dimethyl-3-(1,3-thiazol-2-yl)-6a., 7,9,10-tetrahydro-2′H,5H-spiro[1,4-oxazino[4,3-a][1,8]naphthyridine-6,5′-pyrimidine]-2′,4′,6′(1′H,3′H)-trione]: the IC50 under setting [1] came out at 9 µM. The same measure, in the same setting: the result for `CC1CN2c3ncc(-c4ccnn4C)cc3CC3(C(=O)NC(=O)NC3=O)C2C(C)O1` [Example 41, (6aS,7S,9R)-rel-7,9-Dimethyl-3-(1-methyl-1H-pyrazol-5-yl)-6a., 7,9,10-tetrahydro-2′H,5H-spiro[1,4-oxazino[4,3-a][1,8]naphthyridine-6,5′-pyrimidine]-2′,4′,6′(1′H,3′H)-trione] reads 5 µM; that for `CC1CN2c3ncc(-c4cn[nH]c4)cc3CC3(C(=O)NC(=O)NC3=O)C2C(C)O1` [Example 44, (6aS,7S,9R)-rel-7,9-Dimethyl-3-(1H-pyrazol-4-yl)-6a., 7,9,10-tetrahydro-2′H,5H-spiro[1,4-oxazino[4,3-a][1,8]naphthyridine-6,5′-pyrimidine]-2′,4′,6′(1′H,3′H)-trione], above 10 µM. Molecule `C[C@H]1C[C@@H](C)[C@H]2N(C1)c1cnc(-c3ccn[nH]3)cc1CC21C(=O)NC(=O)NC1=O` [Example 117, (6aR,7R,9S)-7,9-Dimethyl-3-(1H-pyrazol-5-yl)-5,6a,7,8,9,10-hexahydro-1′H-spiro[pyrido[1,2-a][1,7]naphthyridine-6,5′-pyrimidine]-2′,4′,6′(3′H)-trione] displayed an IC50 of 1 µM. With “(2R,4S,4aS)-rel-2,4-Dimethyl-8-(1H-pyrazol-4-yl)-1,2,4,4a-tetrahydro-2′H,6H-spiro[1,4-oxazino[4,3-a][1,5]naphthyridine-5,5′-pyrimidine]-2′,4′,6′(1′H,3′H)-trione [Example 72]”, the IC50 under setting [1] was above 5 µM. On the same count and under the same terms, the same measure for “(6aS,7S,9R)-rel-3-(6-Methoxypyrazin-2-yl)-7,9-dimethyl-6a,7,9,10-tetrahydro-2′H,5H-spiro[1,4-oxazino[4,3-a][1,7]naphthyridine-6,5′-pyrimidine]-2′,4′,6′(1′H,3′H)-trione [Example 105]”: 19 µM.
